“And” between values parts separate entries of the source, which are not always exact repeats. Equal values may be shown once.
Details: Liquid, Closed cell (Static) method

FC(C(F)(F)F)C(F)(F)F [1,1,1,2,3,3,3-heptafluoropropane]
Details | vapor or sublimation pressure
253.31 K | 86.81 kPa
253.32 K | 86.83 kPa
253.33 K | 86.86 kPa
255.21 K | 94.46 kPa
257.26 K | 103.23 kPa and 103.26 kPa
259.59 K | 114.05 kPa
261.28 K | 122.37 kPa
263.26 K | 132.72 kPa
265.17 K | 143.42 kPa
267.15 K | 155.12 kPa and 155.14 kPa
269.19 K | 167.93 kPa
271.14 K | 181.01 kPa
273.13 K | 195.16 kPa
273.14 K | 195.21 kPa
273.16 K | 195.29 kPa
275.15 K | 210.31 kPa
275.17 K | 210.44 kPa
275.18 K | 210.49 kPa
276.99 K | 224.91 kPa
279.19 K | 243.27 kPa
281.14 K | 260.66 kPa
283.18 K | 279.74 kPa
285.18 K | 299.49 kPa
285.19 K | 299.62 kPa
287.14 K | 319.89 kPa
289.07 K | 340.97 kPa
289.1 K | 341.37 kPa
291.06 K | 363.71 kPa
291.16 K | 365.01 kPa
293.04 K | 387.68 kPa
293.15 K | 388.98 kPa
293.23 K | 390.05 kPa
295.22 K | 415.24 kPa
295.32 K | 416.61 kPa
297.21 K | 441.61 kPa
297.22 K | 441.76 kPa
299.07 K | 467.46 kPa
299.16 K | 468.9 kPa
301.54 K | 503.72 kPa
303.66 K | 536.19 kPa
305.19 K | 560.59 kPa
307.19 K | 593.83 kPa
309.51 K | 634.38 kPa
311.16 K | 664.23 kPa
313.13 K | 701.36 kPa
315.11 K | 740.37 kPa
317.15 K | 781.99 kPa
317.5 K | 789.45 kPa
319.51 K | 832.46 kPa
321.16 K | 869.25 kPa
323.13 K | 914.73 kPa
323.17 K | 915.9 kPa
325.11 K | 962.18 kPa
329.17 K | 1065.4 kPa
333.69 K | 1190.1 kPa
339.17 K | 1355.8 kPa
344.87 K | 1545.3 kPa
349.82 K | 1725.8 kPa
353.22 K | 1859.3 kPa
357.13 K | 2022.6 kPa
361.12 K | 2201.1 kPa
364.88 K | 2380.9 kPa
369.16 K | 2600 kPa
373.22 K | 2825.1 kPa and 2825.2 kPa and 2825.3 kPa

FC(F)CC(F)(F)F [1,1,1,3,3-pentafluoropropane]
Details | vapor or sublimation pressure
255.22 K | 21.93 kPa
259.37 K | 27.28 kPa and 27.27 kPa
263.27 K | 33.25 kPa and 33.24 kPa
267.31 K | 40.47 kPa
271.03 K | 48.26 kPa
275.31 K | 58.66 kPa
279.32 K | 69.99 kPa and 69.98 kPa
279.33 K | 69.98 kPa and 69.99 kPa
283.2 K | 82.37 kPa and 82.36 kPa
285.08 K | 89.02 kPa and 89.05 kPa
288.91 K | 103.68 kPa and 103.67 kPa
291.16 K | 113.41 kPa and 113.43 kPa
291.17 K | 113.42 kPa
292.62 K | 119.97 kPa and 120.01 kPa
295.55 K | 134.37 kPa and 134.41 kPa
298.31 K | 149.04 kPa and 149.05 kPa
300.16 K | 159.38 kPa
313.13 K | 250.2 kPa and 250.26 kPa and 250.34 kPa
317.43 K | 287.67 kPa and 287.72 kPa and 287.84 kPa
321.77 K | 329.9 kPa and 329.87 kPa
327.34 K | 390.52 kPa and 390.61 kPa
333.55 K | 467.79 kPa
344.96 K | 639.43 kPa
347.8 K | 688.83 kPa and 688.9 kPa
351.54 K | 757.91 kPa and 757.93 kPa and 757.86 kPa
354.13 K | 808.71 kPa
354.15 K | 809.38 kPa
357.7 K | 883.2 kPa
362.21 K | 984.31 kPa and 984.35 kPa
364.47 K | 1038.2 kPa
367.1 K | 1103.6 kPa
367.11 K | 1103.6 kPa
371.11 K | 1209.3 kPa
371.12 K | 1209.3 kPa
374.81 K | 1313.1 kPa
374.95 K | 1317.3 kPa
377.03 K | 1378.9 kPa
381.38 K | 1514.3 kPa
384.5 K | 1617.4 kPa
388.32 K | 1751.2 kPa
393.64 K | 1950.8 kPa

Reference: the NIST ThermoML archive (doi:10.1021/je0342769)
